Measurements reported in patent publication US20240158446A1, “CYCLIC COMPOUND HAVING SELECTIVE INHIBITORY ACTION ON KRAS OVER HRAS AND NRAS” (CHUGAI SEIYAKU KABUSHIKI KAISHA, priority 2021, published 2024).
pKd: −log10 of the molar value.

How the values were obtained:
[1] = target: GDP-bound HRAS wild-type protein (Homo sapiens, UniProt P01112); assay: Binding to HRAS by surface plasmon resonance (SPR), Single Cycle Kinetics; details: SPR, GDP-bound HRAS wild-type protein vs GDP-bound KRAS wild-type protein
[2] = target: GDP-bound NRAS wild-type protein (Homo sapiens, UniProt P01111); assay: Binding to NRAS by surface plasmon resonance (SPR), Single Cycle Kinetics; details: SPR, GDP-bound NRAS wild-type protein vs GDP-bound KRAS wild-type protein
[3] = target: GDP-bound KRAS wild-type protein (Homo sapiens, UniProt P01116); assay: Binding to KRAS by surface plasmon resonance (SPR), Single Cycle Kinetics; details: SPR, Single Cycle Kinetics, GDP-bound KRAS wild-type protein; read-out: KRAS KD
Sequence of GDP-bound KRAS wild-type protein (P01116 whole entry): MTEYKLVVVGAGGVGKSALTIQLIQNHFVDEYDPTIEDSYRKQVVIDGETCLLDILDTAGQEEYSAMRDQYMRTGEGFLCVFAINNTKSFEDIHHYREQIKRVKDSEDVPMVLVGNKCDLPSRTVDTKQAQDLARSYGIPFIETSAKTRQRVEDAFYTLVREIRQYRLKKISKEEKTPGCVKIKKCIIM

Sequence of GDP-bound NRAS wild-type protein (P01111 whole entry): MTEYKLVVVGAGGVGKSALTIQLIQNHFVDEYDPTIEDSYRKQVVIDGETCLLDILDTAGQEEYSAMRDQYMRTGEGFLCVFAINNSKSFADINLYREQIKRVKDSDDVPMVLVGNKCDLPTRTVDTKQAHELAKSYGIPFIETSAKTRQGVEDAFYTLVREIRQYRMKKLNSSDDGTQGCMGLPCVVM
Sequence of GDP-bound HRAS wild-type protein (P01112 whole entry): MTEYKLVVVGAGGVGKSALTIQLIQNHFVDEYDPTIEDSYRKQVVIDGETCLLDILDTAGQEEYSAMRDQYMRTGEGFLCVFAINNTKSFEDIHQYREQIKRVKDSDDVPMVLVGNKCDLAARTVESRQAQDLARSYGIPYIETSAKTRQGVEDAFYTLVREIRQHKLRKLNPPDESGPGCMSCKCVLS

CCO[C@@H]1C[C@H]2C(=O)NC3(CCC3)C(=O)N(C)[C@@H](C3CCCC3)C(=O)N(C)[C@H](C(=O)N3CCOCC3)CC(=O)N(C)[C@@H](COC)C(=O)N[C@@H]([C@@H](C)CC)C(=O)N(C)CC(=O)N(C)[C@H]3CCCCCN(C3=O)[C@@H](Cc3ccc(C(F)(F)F)cc3)C(=O)N(C)CC(=O)N[C@@H](CCc3ccc(C)cc3)C(=O)N2C1 [PP0850]
HRAS/KRAS (ratio of KD value for HRAS to KD value for KRAS) [1]: B (a compound having 3 or more and less than 10 is denoted as B) | NRAS/KRAS (ratio of KD value for NRAS to KD value for KRAS) [2]: B (a compound having 3 or more and less than 10 is denoted as B) | pKd [3]: 7.92

CCO[C@@H]1C[C@H]2C(=O)NC3(CCC3)C(=O)N(C)[C@@H](C3CCCC3)C(=O)N(C)[C@H](C(=O)N3CCOCC3)CC(=O)N(C)[C@@H](CC(F)F)C(=O)N[C@@H]([C@@H](C)CC)C(=O)N(C)CC(=O)N(C)[C@H]3CCCCCN(C3=O)[C@@H](Cc3ccc(C(F)(F)F)cc3)C(=O)N(C)CC(=O)N[C@@H](CCc3cc(F)c(C(F)(F)F)c(F)c3)C(=O)N2C1 [PP0854]
HRAS/KRAS (ratio of KD value for HRAS to KD value for KRAS) [1]: B (a compound having 3 or more and less than 10 is denoted as B) | NRAS/KRAS (ratio of KD value for NRAS to KD value for KRAS) [2]: B (a compound having 3 or more and less than 10 is denoted as B) | pKd [3]: 9.42

CCO[C@@H]1C[C@H]2C(=O)NC3(CCC3)C(=O)N(C)[C@@H](C3CCCC3)C(=O)N(C)[C@H](C(=O)N3CCOCC3)CC(=O)N(C)[C@@H](Cc3cccc(Cl)c3)C(=O)N[C@@H]([C@@H](C)CC)C(=O)N(C)CC(=O)N(C)[C@H]3CCCCCN(C3=O)[C@@H](Cc3ccc(C(F)(F)F)cc3)C(=O)N(C)CC(=O)N[C@@H](CCc3cc(F)c(C(F)(F)F)c(F)c3)C(=O)N2C1 [PP0857]
HRAS/KRAS (ratio of KD value for HRAS to KD value for KRAS) [1]: B (a compound having 3 or more and less than 10 is denoted as B) | NRAS/KRAS (ratio of KD value for NRAS to KD value for KRAS) [2]: B (a compound having 3 or more and less than 10 is denoted as B) | pKd [3]: 8.85

CCO[C@@H]1C[C@H]2C(=O)NC3(CCC3)C(=O)N(C)[C@@H](C3CCCC3)C(=O)N(C)[C@H](C(=O)N3CCOCC3)CC(=O)N(C)[C@@H](COC)C(=O)N[C@@H]([C@@H](C)CC)C(=O)NCC(=O)N(C)[C@H]3CCCCCN(C3=O)[C@@H](Cc3ccc(C(F)(F)F)cc3)C(=O)N(C)CC(=O)N[C@@H](CCc3cc(F)c(C(F)(F)F)c(F)c3)C(=O)N2C1 [PP0858]
HRAS/KRAS (ratio of KD value for HRAS to KD value for KRAS) [1]: B (a compound having 3 or more and less than 10 is denoted as B) | NRAS/KRAS (ratio of KD value for NRAS to KD value for KRAS) [2]: B (a compound having 3 or more and less than 10 is denoted as B) | pKd [3]: 9.18

CCO[C@@H]1C[C@H]2C(=O)NC3(CCC3)C(=O)N(C)[C@@H](C3CCCC3)C(=O)N(C)[C@H](C(=O)N(C)C)CC(=O)N(C)[C@@H](COC)C(=O)N[C@@H]([C@@H](C)CC)C(=O)NCC(=O)N(C)[C@H]3CCCCCN(C3=O)[C@@H](Cc3ccc(C(F)(F)F)cc3)C(=O)N(C)CC(=O)N[C@@H](CCc3cc(F)c(C(F)(F)F)c(F)c3)C(=O)N2C1 [PP0859]
HRAS/KRAS (ratio of KD value for HRAS to KD value for KRAS) [1]: B (a compound having 3 or more and less than 10 is denoted as B) | NRAS/KRAS (ratio of KD value for NRAS to KD value for KRAS) [2]: B (a compound having 3 or more and less than 10 is denoted as B) | pKd [3]: 9.51

CC[C@H](C)[C@@H]1NC(=O)[C@H](COC)N(C)C(=O)C[C@@H](C(=O)N2CCOCC2)N(C)C(=O)[C@H](C2CCCC2)N(C)C(=O)C2(CCC2)NC(=O)[C@@H]2CC(F)(F)CN2C(=O)[C@H](CCc2cc(F)c(C(F)(F)F)c(F)c2)NC(=O)CN(C)C(=O)[C@H](Cc2ccc(C(F)(F)F)cc2)N2CCCCC[C@@H](C2=O)N(C)C(=O)CNC1=O [PP0861]
HRAS/KRAS (ratio of KD value for HRAS to KD value for KRAS) [1]: B (a compound having 3 or more and less than 10 is denoted as B) | NRAS/KRAS (ratio of KD value for NRAS to KD value for KRAS) [2]: B (a compound having 3 or more and less than 10 is denoted as B) | pKd [3]: 9.18

CCO[C@@H]1C[C@H]2C(=O)NC3(CCC3)C(=O)N(C)[C@@H](C3CCCC3)C(=O)N(C)[C@H](C(=O)N3CCOCC3)CC(=O)N(C)[C@@H](COC)C(=O)N[C@@H]([C@@H](C)CC)C(=O)N3CC[C@H]3C(=O)N(C)[C@H]3CCCCCN(C3=O)[C@@H](Cc3ccc(C(F)(F)F)cc3)C(=O)N(C)CC(=O)N[C@@H](CCc3cc(F)c(C(F)(F)F)c(F)c3)C(=O)N2C1 [PP0863]
HRAS/KRAS (ratio of KD value for HRAS to KD value for KRAS) [1]: B (a compound having 3 or more and less than 10 is denoted as B) | NRAS/KRAS (ratio of KD value for NRAS to KD value for KRAS) [2]: B (a compound having 3 or more and less than 10 is denoted as B) | pKd [3]: 9.22

CCO[C@@H]1C[C@H]2C(=O)NC3(CCC3)C(=O)N(C)[C@@H](C3CCCC3)C(=O)N(C)[C@H](C(=O)N(C)C)CC(=O)N(C)[C@@H](COC)C(=O)N[C@@H]([C@@H](C)CC)C(=O)N3CC[C@H]3C(=O)N(C)[C@H]3CCCCCN(C3=O)[C@@H](Cc3ccc(C(F)(F)F)cc3)C(=O)N(C)CC(=O)N[C@@H](CCc3cc(F)c(C(F)(F)F)c(F)c3)C(=O)N2C1 [PP0864]
HRAS/KRAS (ratio of KD value for HRAS to KD value for KRAS) [1]: B (a compound having 3 or more and less than 10 is denoted as B) | NRAS/KRAS (ratio of KD value for NRAS to KD value for KRAS) [2]: B (a compound having 3 or more and less than 10 is denoted as B) | pKd [3]: 9.31

CC[C@H](C)[C@@H]1NC(=O)[C@H](COC)N(C)C(=O)C[C@@H](C(=O)N2CCOCC2)N(C)C(=O)[C@H](C2CCCC2)N(C)C(=O)C2(CCC2)NC(=O)[C@@H]2CCCN2C(=O)[C@H](CCc2cc(F)c(C(F)(F)F)c(F)c2)NC(=O)CN(C)C(=O)[C@H](Cc2ccc(C(F)(F)F)cc2)N2CCCCC[C@@H](C2=O)N(C)C(=O)[C@@H]2CCN2C1=O [PP0865]
HRAS/KRAS (ratio of KD value for HRAS to KD value for KRAS) [1]: B (a compound having 3 or more and less than 10 is denoted as B) | NRAS/KRAS (ratio of KD value for NRAS to KD value for KRAS) [2]: B (a compound having 3 or more and less than 10 is denoted as B) | pKd [3]: 8.96

CC[C@H](C)[C@@H]1NC(=O)[C@H](COC)N(C)C(=O)C[C@@H](C(=O)N2CCOCC2)N(C)C(=O)[C@H](C2CCCC2)N(C)C(=O)C2(CCC2)NC(=O)[C@@H]2CC(F)(F)CN2C(=O)[C@H](CCc2cc(F)c(C(F)(F)F)c(F)c2)NC(=O)CN(C)C(=O)[C@H](Cc2ccc(C(F)(F)F)cc2)N2CCCCC[C@@H](C2=O)N(C)C(=O)[C@@H]2CCN2C1=O [PP0866]
HRAS/KRAS (ratio of KD value for HRAS to KD value for KRAS) [1]: B (a compound having 3 or more and less than 10 is denoted as B) | NRAS/KRAS (ratio of KD value for NRAS to KD value for KRAS) [2]: B (a compound having 3 or more and less than 10 is denoted as B) | pKd [3]: 9.28

CC[C@H](C)[C@@H]1NC(=O)[C@H](CC(C)C)N(C)C(=O)C[C@@H](C(=O)N2CCOCC2)N(C)C(=O)[C@H](C2CCCC2)N(C)C(=O)C2(CCC2)NC(=O)[C@@H]2C[C@@H](O)CN2C(=O)[C@H](CCc2cc(F)c(C(F)(F)F)c(F)c2)NC(=O)CN(C)C(=O)[C@H](Cc2ccc(C(F)(F)F)cc2)N2CCCC[C@@H](C2=O)N(C)C(=O)CN(C)C1=O [PP0868]
HRAS/KRAS (ratio of KD value for HRAS to KD value for KRAS) [1]: B (a compound having 3 or more and less than 10 is denoted as B) | NRAS/KRAS (ratio of KD value for NRAS to KD value for KRAS) [2]: C (A compound having a KD ratio of 0.1 or more and less than 3 is denoted as C) | pKd [3]: 10.28

CC[C@H](C)[C@@H]1NC(=O)[C@H](CC(C)C)N(C)C(=O)C[C@@H](C(=O)N2CCOCC2)N(C)C(=O)[C@H](C2CCCC2)N(C)C(=O)C2(CCC2)NC(=O)[C@@H]2[C@@H](O)CCN2C(=O)[C@H](CCc2cc(F)c(C(F)(F)F)c(F)c2)NC(=O)CN(C)C(=O)[C@H](Cc2ccc(C(F)(F)F)cc2)N2CCCC[C@@H](C2=O)N(C)C(=O)CN(C)C1=O [PP0869]
HRAS/KRAS (ratio of KD value for HRAS to KD value for KRAS) [1]: B (a compound having 3 or more and less than 10 is denoted as B) | NRAS/KRAS (ratio of KD value for NRAS to KD value for KRAS) [2]: B (a compound having 3 or more and less than 10 is denoted as B) | pKd [3]: 10.25

CC[C@H](C)[C@@H]1NC(=O)[C@H](CC(C)C)N(C)C(=O)C[C@@H](C(=O)N2CCOCC2)N(C)C(=O)[C@H](C2CCCC2)N(C)C(=O)C2(CCC2)NC(=O)[C@@H]2[C@H](O)CCN2C(=O)[C@H](CCc2cc(F)c(C(F)(F)F)c(F)c2)NC(=O)CN(C)C(=O)[C@H](Cc2ccc(C(F)(F)F)cc2)N2CCCC[C@@H](C2=O)N(C)C(=O)CN(C)C1=O [PP0870]
HRAS/KRAS (ratio of KD value for HRAS to KD value for KRAS) [1]: B (a compound having 3 or more and less than 10 is denoted as B) | NRAS/KRAS (ratio of KD value for NRAS to KD value for KRAS) [2]: B (a compound having 3 or more and less than 10 is denoted as B) | pKd [3]: 10.24

C=CC[C@H]1C(=O)N[C@@H]([C@@H](C)CC)C(=O)N(C)CC(=O)N(C)[C@H]2CCCCN(C2=O)[C@@H](Cc2ccc(C(F)(F)F)cc2)C(=O)N(C)CC(=O)N[C@@H](CCc2cc(F)c(C(F)(F)F)c(F)c2)C(=O)N2C[C@H](OCC)C[C@H]2C(=O)N[C@](C)(CC=C)C(=O)N(C)[C@@H](C2CCCC2)C(=O)N(C)[C@H](C(=O)N2CCOCC2)CC(=O)N1C [PP0874]
HRAS/KRAS (ratio of KD value for HRAS to KD value for KRAS) [1]: B (a compound having 3 or more and less than 10 is denoted as B) | NRAS/KRAS (ratio of KD value for NRAS to KD value for KRAS) [2]: C (A compound having a KD ratio of 0.1 or more and less than 3 is denoted as C) | pKd [3]: 10.00

C=CCC[C@H]1C(=O)N[C@@H]([C@@H](C)CC)C(=O)N(C)CC(=O)N(C)[C@H]2CCCCN(C2=O)[C@@H](Cc2ccc(C(F)(F)F)cc2)C(=O)N(C)CC(=O)N[C@@H](CCc2cc(F)c(C(F)(F)F)c(F)c2)C(=O)N2C[C@H](OCC)C[C@H]2C(=O)N[C@](C)(CC=C)C(=O)N(C)[C@@H](C2CCCC2)C(=O)N(C)[C@H](C(=O)N2CCOCC2)CC(=O)N1C [PP0875]
HRAS/KRAS (ratio of KD value for HRAS to KD value for KRAS) [1]: B (a compound having 3 or more and less than 10 is denoted as B) | NRAS/KRAS (ratio of KD value for NRAS to KD value for KRAS) [2]: C (A compound having a KD ratio of 0.1 or more and less than 3 is denoted as C) | pKd [3]: 10.02
